According to PMC6874883 (Biochemistry, 2019):
Residue numbers refer to the chain shown, from its start. Names and notes keep the numbering of the source. Values joined by “and” are separate entries in the source; they are usually repeats but may differ in a detail not shown here. Equal values may be shown once.

How the values were obtained:
procaspase-6 = target: T1, procaspase-6 (Homo sapiens, UniProt P55212); type: binding
T1 sequence (P55212 1-293): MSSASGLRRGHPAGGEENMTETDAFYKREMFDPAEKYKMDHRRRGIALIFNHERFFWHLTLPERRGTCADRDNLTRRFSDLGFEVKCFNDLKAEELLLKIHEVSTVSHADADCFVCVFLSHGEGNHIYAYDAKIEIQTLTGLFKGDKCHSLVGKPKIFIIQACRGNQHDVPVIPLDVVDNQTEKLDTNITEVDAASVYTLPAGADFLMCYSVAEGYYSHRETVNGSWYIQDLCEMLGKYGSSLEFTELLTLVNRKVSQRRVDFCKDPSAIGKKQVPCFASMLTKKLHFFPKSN

[1] = target: T2, procaspase-6, Caspase-6 FL N-terminally (His)6 (Homo sapiens, UniProt P55212); test: biochemical
T2 sequence (P55212 1-293): T1 sequence (P55212 1-293)

caspase-6 ΔN D179CT = target: T3, caspase-6 ΔN D179CT (Homo sapiens, UniProt P55212); test: Effect of ATP on the activity of cleaved, active caspase-6; type: biochemical; settings: increasing ATP concentrations (0-40 mM), 1.5 h, 37 °C, 60 μM VEID-AMC
T3 sequence (P55212 24-179): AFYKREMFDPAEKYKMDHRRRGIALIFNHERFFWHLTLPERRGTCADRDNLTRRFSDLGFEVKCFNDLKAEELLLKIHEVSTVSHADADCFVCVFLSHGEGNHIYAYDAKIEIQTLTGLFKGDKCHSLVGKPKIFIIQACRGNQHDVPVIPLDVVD
T3 sequence (P55212 194-293): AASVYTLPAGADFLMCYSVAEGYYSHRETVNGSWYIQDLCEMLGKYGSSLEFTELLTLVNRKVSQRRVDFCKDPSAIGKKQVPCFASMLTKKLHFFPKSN

[2] = target: procaspase-6 (inactive C163S zymogen); settings: SPR; cited from earlier work
procaspase-6 Y198A = target: T4, procaspase-6 Y198A (Homo sapiens, UniProt P55212, Y198A); test: ATPAc labeling of K133, Y198A variant expressed in E. coli; type: binding; settings: zymogen processed to mature Y198A caspase-6; relative to C163S = 100%
T4 sequence (P55212 24-179): T3 sequence (P55212 24-179)
T4 sequence (P55212 194-293 Y198A): T3 sequence (P55212 194-293) with Y5A

procaspase-6 C163S = target: T5, procaspase-6 C163S (Homo sapiens, UniProt P55212, C163S); test: ATPAc labeling of K133, C163S variant expressed in E. coli; type: binding; settings: full-length zymogen; defined as 100%
T5 sequence (P55212 1-293 C163S): T1 sequence (P55212 1-293) with C163S

procaspase-6 Y198A/C163S = target: T6, procaspase-6 Y198A/C163S (Homo sapiens, UniProt P55212, C163S/Y198A); test: ATPAc labeling of K133, Y198A/C163S variant expressed in E. coli; type: binding; settings: full-length procaspase-6; relative to C163S = 100%
T6 sequence (P55212 1-293 C163S/Y198A): T1 sequence (P55212 1-293) with C163S, Y198A

caspase-6 = target: T7, caspase-6 (Homo sapiens, UniProt P55212); test: Caspase activity assay, kinetic parameters with VEID-AMC substrate; type: biochemical; settings: 100 nM enzyme, VEID-AMC 0-500 μM, 37 °C
T7 sequence (P55212 24-179): T3 sequence (P55212 24-179)
T7 sequence (P55212 194-293): T3 sequence (P55212 194-293)

Nc1ncnc2c1ncn2[C@@H]1O[C@H](COP(=O)(O)OP(=O)(O)OP(=O)(O)O)[C@@H](O)[C@H]1O [ATP, adenosine triphosphate]
IC50 (procaspase-6): 1000 to 3000 µM | Ki (procaspase-6): ~2000 µM | IC50 [1]: 19000 ± 800 µM | activity of mature caspase-6 (caspase-6 ΔN D179CT): not affected

Nc1nc2c(ncn2[C@@H]2O[C@H](COP(=O)(O)OP(=O)(O)OP(=O)(O)O)[C@@H](O)[C@H]2O)c(=O)[nH]1 [GTP, guanosine triphosphate]
inhibition of K133 acylation by acyl phosphate probes (procaspase-6; resting Jurkat lysates pretreated 15 min with nucleotide (5 mM)): inhibited

Nc1cc2ccccc2c(O)n1 [compound 3, 3-aminoisoquinolin-1-ol]
Kd [2]: 1.8 µM and ~1.8 µM | IC50 (procaspase-6): > 1000 µM

Nc1ncnc2c1ncn2[C@H]1C[C@H](O)[C@@H](COP(=O)(O)OP(=O)(O)OP(=O)(O)O)O1 [dATP]
inhibition of probe acylation (immunoblot) (procaspase-6; immunoblot experiment, at ≤100 mM): no significant inhibition

desthiobiotin acyl phosphate of ATP [ATPAc]
acylation of K133 (procaspase-6 Y198A): 1.9% | acylation of K133 (procaspase-6 C163S): 100% | acylation of K133 (procaspase-6 Y198A/C163S): 1.7%

B1: Y198A: mature active caspase-6 Y198A variant, recombinant, expressed in E. coli (protein, UniProt P55212 1-293, looked up, variant Y198A)
chain: T1 sequence (P55212 1-293) with Y198A
kcat (caspase-6): 2.84 ± 0.04 s⁻¹
